# According to the supplement of paper PMC11061612:
# How the values were obtained:
# [1] = compound: COc1nnc2ccc(N3CCC(c4ccc(OCCN5CCN(C)C(=O)[C@H]5C)cc4)CC3)nn12 [AZD5153]; conditions: max 1 µM
# How it was run: (§1)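 Cancer cell lines in 1536-well plates (7.5 μl DMEM/F12 or RPMI, 10% FBS) were held 24 hours at 37°C and 5% CO2 and then dosed for 72 hours at a final DMSO of typically 0.2%. Viability was taken from CellTiter-Glo 2.0 luminescence, scaled between blank-well and DMSO-well means. Curves were fitted as two-parameter logistic models with a non-linear mixed effects model, from which the single-agent IC50 was taken.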
# [2] = compound: CC(C)n1c(=O)n(C)c2cnc3cc(F)c(-c4ccc(OCCCN5CCCCC5)nc4)cc3c21 [AZD1390]; conditions: max 0.3 µM
# How it was run: as §1
# [3] = compound: COc1cccc(OCCCN)c1-c1cc(Nc2cnc(C#N)cn2)n[nH]1 [Prexasertib]; conditions: max 1 µM
# How it was run: as §1
# [4] = compound: C[C@@H](Oc1cc(-c2cnn(C3CCNCC3)c2)cnc1N)c1c(Cl)ccc(F)c1Cl [Crizotinib]; conditions: max 10 µM
# How it was run: as §1
# [5] = compound: CC(=O)Nc1cccc(-n2c(=O)n(C3CC3)c(=O)c3c(Nc4ccc(I)cc4F)n(C)c(=O)c(C)c32)c1 [Trametinib]; conditions: max 1 µM
# How it was run: as §1
# [6] = compound: Cn1cnc2c(F)c(Nc3ccc(Br)cc3Cl)c(C(=O)NOCCO)cc21 [Selumetinib]
# How it was run: as §1
# [7] = compound: C1CN(CCC1(C(=O)N[C@@H](CCO)C2=CC=C(C=C2)Cl)N)C3=NC=NC4=C3C=CN4 [Capivasertib]
# How it was run: as §1
# [8] = compound: CC1=CN2[C@@H](C1)C=NC3=CC(=C(C=C3C2=O)OC)OCCCCCOC4=C(C=C5C(=C4)N=C[C@@H]6CC(=CN6C5=O)C)OC [SG3199]; conditions: max 0.001 µM
# How it was run: as §1
# [9] = compound: C[C@@H](Nc1cc(F)cc(F)c1)c1cc(C(=O)N(C)C)cc2c(=O)cc(N3CCOCC3)oc12 [AZD8186]; conditions: max 3 µM
# How it was run: as §1
# [10] = compound: Cc1nc(-c2cn3c(n2)-c2ccc(-c4cnn(C(C)(C)C(N)=O)c4)cc2OCC3)n(C(C)C)n1 [Taselisib]; conditions: max 10 µM
# How it was run: as §1
# [11] = compound: CCc1c2c(nc3ccc(O)cc13)-c1cc3c(c(=O)n1C2)COC(=O)[C@]3(O)CC [SN-38]; conditions: max 0.3 µM
# How it was run: as §1
# [12] = compound: CN(CC[C@H](CSC1=CC=CC=C1)NC2=C(C=C(C=C2)S(=O)(=O)NC(=O)C3=CC=C(C=C3)N4CCC(CC4)[C@H](C5=CC=CC=C5C6=CC=C(C=C6)Cl)O)S(=O)(=O)C(F)(F)F)CCO [AZD4320]; conditions: max 1 µM
# How it was run: as §1
# [13] = compound: Cc1cc2ncnn2cc1Nc1ncc2c(n1)n(C1CCOCC1)c(=O)n2C [AZD7648]; conditions: max 10 µM
# How it was run: as §1
# [14] = compound: CS(=O)(=O)CCNCc1ccc(-c2ccc3ncnc(Nc4ccc(OCc5cccc(F)c5)c(Cl)c4)c3c2)o1 [Lapatinib]; conditions: max 10 µM
# How it was run: as §1
# [15] = compound: Cc1c2c(nn1C)CSCc1cc(n(C)n1)CSc1cc(c3ccccc3c1)OCCCc1c(C(=O)O)n(C)c3c-2c(Cl)ccc13 [AZD5991]; conditions: max 1 µM
# How it was run: as §1
# [16] = compound: COc1cccc2c1C(=O)c1c(O)c3c(c(O)c1C2=O)C[C@@](O)(C(=O)CO)C[C@@H]3O[C@H]1C[C@H](N)[C@H](O)[C@H](C)O1 [Doxorubicin]; conditions: max 1 µM
# How it was run: as §1
# [17] = compound: C[C@@H](c1ccc2nccn2c1)n1nnc2ncc(-c3cnn(C)c3)nc21 [Savolitinib]; conditions: max 1 µM
# How it was run: as §1
# [18] = compound: CC(=O)c1c(C)c2cnc(Nc3ccc(N4CCNCC4)cn3)nc2n(C2CCCC2)c1=O [Palbociclib]; conditions: max 10 µM
# How it was run: as §1
# [19] = compound: CC1(C)CCC(CN2CCN(c3ccc(C(=O)NS(=O)(=O)c4ccc(NCC5CCOCC5)c([N+](=O)[O-])c4)c(Oc4cnc5[nH]ccc5c4)c3)CC2)=C(c2ccc(Cl)cc2)C1 [Venetoclax]; conditions: max 1 µM
# How it was run: as §1
# [20] = compound: CN(C)CCCOc1ccc(-c2ccc3ncc4c(c3c2)n(C2CCOCC2)c(=O)n4C)cn1 [AZD0156]
# How it was run: as §1
# [21] = compound: C=CCn1c(=O)c2cnc(Nc3ccc(N4CCN(C)CC4)cc3)nc2n1-c1cccc(C(C)(C)O)n1 [AZD1775]
# How it was run: as §1
# [22] = compound: COc1cc2ncnc(Nc3ccc(F)c(Cl)c3)c2cc1OCCCN1CCOCC1 [Gefitinib]; conditions: max 10 µM
# How it was run: as §1
# [23] = compound: C[C@@H]1COCCN1C2=NC(=NC(=C2)C3(CC3)[S@](=N)(=O)C)C4=C5C=CNC5=NC=C4 [AZD6738]; conditions: max 10 µM
# How it was run: as §1
# [24] = compound: COc1cc(Nc2ncc3c(n2)-c2ccc(Cl)cc2C(c2c(F)cccc2OC)=NC3)ccc1C(=O)O [Alisertib]; conditions: max 10 µM
# How it was run: as §1
# [25] = compound: CCN(CCO)CCCOc1ccc2c(Nc3cc(CC(=O)Nc4cccc(F)c4)[nH]n3)ncnc2c1 [AZD2811]; conditions: max 1 µM
# How it was run: as §1
# [26] = compound: CC1=C(C(=CC=C1)Cl)NC(=O)C2=CN=C(S2)NC3=CC(=NC(=N3)C)N4CCN(CC4)CCO [Dasatinib]; conditions: max 2 µM
# How it was run: as §1
# [27] = compound: O=C(c1cc(Cc2n[nH]c(=O)c3ccccc23)ccc1F)N1CCN(C(=O)C2CC2)CC1 [Olaparib]; conditions: max 10 µM
# How it was run: as §1
Cell Line,"IC50, cell viability 72 h [1] [µM]","IC50, cell viability 72 h [2] [µM]","IC50, cell viability 72 h [3] [µM]","IC50, cell viability 72 h [4] [µM]","IC50, cell viability 72 h [5] [µM]","IC50, cell viability 72 h ([6]; max 10 µM) [µM]","IC50, cell viability 72 h ([7]; max 10 µM) [µM]","IC50, cell viability 72 h [8] [µM]","IC50, cell viability 72 h [9] [µM]","IC50, cell viability 72 h [10] [µM]","IC50, cell viability 72 h [11] [µM]","IC50, cell viability 72 h [12] [µM]","IC50, cell viability 72 h [13] [µM]","IC50, cell viability 72 h [14] [µM]","IC50, cell viability 72 h [15] [µM]","IC50, cell viability 72 h [16] [µM]","IC50, cell viability 72 h [17] [µM]","IC50, cell viability 72 h [18] [µM]","IC50, cell viability 72 h [19] [µM]","IC50, cell viability 72 h ([20]; max 3 µM) [µM]","IC50, cell viability 72 h ([21]; max 3 µM) [µM]","IC50, cell viability 72 h [22] [µM]","IC50, cell viability 72 h [23] [µM]","IC50, cell viability 72 h [24] [µM]","IC50, cell viability 72 h [25] [µM]","IC50, cell viability 72 h [26] [µM]","IC50, cell viability 72 h [27] [µM]","IC50, cell viability 72 h ([6]; max 3 µM) [µM]","IC50, cell viability 72 h ([7]; max 3 µM) [µM]","IC50, cell viability 72 h ([20]; max 1 µM) [µM]","IC50, cell viability 72 h ([21]; max 1 µM) [µM]"
HSC-3 (Oral Cavity Carcinoma),0.123,> 0.3,0.213,5.82,0.216,> 10,4.55,> 0.001,> 3,2.26,0.0185,> 1,> 10,2.31,> 1,> 1,> 1,> 10,> 1,> 3,1.73,6.9,> 10,3.39,> 1,0.877,> 10,,,,
NCI-H1563 (Lung Adenocarcinoma),> 1,> 0.3,> 1,> 10,> 1,> 10,> 10,> 0.001,2.27,2.48,> 0.3,> 1,> 10,> 10,> 1,> 1,> 1,> 10,> 1,> 3,> 3,> 10,> 10,> 10,> 1,1.12,> 10,,,,
AsPC-1 (Pancreatic Carcinoma),> 1,> 0.3,> 1,> 10,0.866,> 10,> 10,> 0.001,> 3,> 10,> 0.3,> 1,> 10,> 10,> 1,> 1,> 1,> 10,> 1,> 3,> 3,> 10,> 10,> 10,> 1,> 2,> 10,,,,
RL95-2 (Endometrial Carcinoma),> 1,> 0.3,0.0938,> 10,0.54,9.13,1.4,> 0.001,> 3,> 10,> 0.3,> 1,> 10,> 10,0.266,> 1,> 1,> 10,> 1,> 3,0.49,> 10,8.39,2.14,0.305,> 2,> 10,,,,
JHH-1 (Hepatocellular Carcinoma),> 1,> 0.3,0.259,> 10,0.41,> 10,> 10,> 0.001,> 3,> 10,> 0.3,> 1,> 10,> 10,> 1,> 1,> 1,> 10,> 1,> 3,1.27,> 10,> 10,> 10,> 1,> 2,> 10,,,,
SNU-175 (Colorectal Carcinoma),0.236,> 0.3,0.761,4.58,0.547,> 10,> 10,> 0.001,> 3,> 10,0.208,> 1,> 10,> 10,> 1,0.502,> 1,8.34,> 1,> 3,0.365,9.29,> 10,0.377,0.0656,> 2,> 10,,,,
NCI-H196 (Small Cell Lung Carcinoma),> 1,> 0.3,0.17,> 10,> 1,> 10,> 10,> 0.001,> 3,> 10,> 0.3,> 1,> 10,> 10,> 1,> 1,> 1,> 10,> 1,> 3,2.11,> 10,> 10,> 10,> 1,> 2,> 10,,,,
OVTOKO (Ovarian Carcinoma),0.948,> 0.3,0.714,> 10,> 1,> 10,8.52,> 0.001,2.65,0.693,> 0.3,> 1,> 10,> 10,> 1,> 1,> 1,> 10,> 1,> 3,2.1,> 10,> 10,> 10,> 1,0.0564,> 10,,,,
Caov-3 (Ovarian Carcinoma),,,0.0355,,> 1,,,> 0.001,> 3,5.61,0.00551,> 1,> 10,,> 1,0.316,,,> 1,,,,2.74,0.0305,0.0487,,> 10,> 3,> 3,> 1,0.453
AN3-CA (Endometrial Carcinoma),> 1,> 0.3,0.0665,> 10,> 1,> 10,1.65,> 0.001,> 3,0.615,> 0.3,> 1,> 10,> 10,> 1,> 1,> 1,> 10,> 1,> 3,1.29,> 10,> 10,1.37,> 1,> 2,> 10,,,,
